Reference: patent US20020156084A1, “Use of N-benzyl piperazine and analogues as quality of life enhancers” (priority 2001, published 2002)

Assay: Administration of N-Benzyl Piperazine (appetite suppressant / anti-depressant effect)
Assay type: in vivo
Settings: administration of the compound; no test details given
Description: This Patent description is of the use of N-Benzyl Piperazine and Analogues as Quality of Life Enhancers. Administration of N-Benzyl Piperazine has shown to be effective as an appetite suppressant and as a mild anti-depressant. Yeah though it be known that N-Benzyl Piperazine is a CNS stimulant and that stimulants usually are appetite suppressants, it was unknown and unobvious that the binding affinities for the serotonin receptor would be in “perfect” harmony with the norepinephrine receptor to eliminate the side effects of nervousness and the like. It was also unobvious that the increased levels of serotonin and norepinephrine would facilitate individuals in their daily lives to accomplish goals. That is why it is referred to as a Quality of Life Enhancer. Quality of Life Enhancer is defined as a weight loss supplement, appetite suppressant, anti-depressant, cognition enhancer or diet supplement.
Administration of the compounds is usually in the form of their pharmaceutically acceptable acid addition salts. Doses are within the range if 10 mg to 300 mg per day, but usually are in pills of 75 mg two times a day. Once desired effect is attained 75 mg per day is sufficient.

SMILES: c1ccc(CN2CCNCC2)cc1 [N-Benzyl Piperazine, 1-benzylpiperazine]
- effectiveness as a mild anti-depressant: effective
